According to ChEMBL document CHEMBL1806496, “Nothospondin, a new AP-1 inhibitory quassinoid from the Cameroonian plant Nothospondias staudtii” (Bioorg Med Chem Lett, 2011):

Experiments:
[1] = tested on: HEK-293T; assay: Cytotoxicity against human HEK293T cells expressing AP-1 at 80 uM after 18 hrs by XTT assay; type: cell-based
[2] = biological target: Transcription factor Jun (Homo sapiens, UniProt P05412); assay: Inhibition of TPA-induced AP-1 activity expressed in human HEK293T cells treated 1 hr before TPA challenge measured after 18 hrs by FRET based beta-lactamase reporter assay; type: cell-based, HEK-293T; conditions: for inhibition: HEK-293T
[3] = tested on: HEK-293T; assay: Cytotoxicity against human HEK293T cells expressing AP-1 after 18 hrs by XTT assay; type: cell-based

Transcription factor Jun, sequence (P05412 whole entry): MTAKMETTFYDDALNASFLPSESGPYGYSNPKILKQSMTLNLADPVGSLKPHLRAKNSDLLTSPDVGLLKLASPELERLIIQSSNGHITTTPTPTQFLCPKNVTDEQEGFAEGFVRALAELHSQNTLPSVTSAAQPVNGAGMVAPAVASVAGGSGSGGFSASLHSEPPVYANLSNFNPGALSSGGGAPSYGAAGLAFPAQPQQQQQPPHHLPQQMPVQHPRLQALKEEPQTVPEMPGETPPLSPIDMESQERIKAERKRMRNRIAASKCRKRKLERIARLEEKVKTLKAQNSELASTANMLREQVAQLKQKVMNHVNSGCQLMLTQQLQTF

Structure (SMILES)	Activity [1]	EC50 [2] [µM]	inhibition [2]	IC50 [3] [µM]
CC[C@](C)(O)C(=O)O[C@H]1C(=O)O[C@@H]2C[C@H]3C(C)=CC(=O)[C@@H](O)[C@]3(C)[C@H]3[C@@]4(O)OC[C@]32[C@@H]1[C@@H](C)[C@H]4O [GLAUCARUBINONE]	Non-toxic	0.13	Dose-dependent effect	–
COC1=C(C)[C@@H]2CC(=O)O[C@@H]3C[C@H]4[C@H](C)[C@@H](O)[C@H](O)C(=O)[C@]4(C)[C@@H](C1=O)[C@@]32C [NOTHOSPONDIN]	–	1.49	Dose-dependent effect	10
